Laboratory results: patent US20220025053A1, “Methods of Inhibiting Metastasis in Cancer” (Wisconsin Alumni Research Foundation, priority 2018, published 2022)
“Also recorded” adds a separate entry of the source. Values belong to the molecule of their own block, whether it stands above or below them.

Legend:
[1] = biological target: T1, P-selectin (Homo sapiens, UniProt P16109); conditions: clinical trial; cited from earlier work
T1 sequence (P16109 42-830): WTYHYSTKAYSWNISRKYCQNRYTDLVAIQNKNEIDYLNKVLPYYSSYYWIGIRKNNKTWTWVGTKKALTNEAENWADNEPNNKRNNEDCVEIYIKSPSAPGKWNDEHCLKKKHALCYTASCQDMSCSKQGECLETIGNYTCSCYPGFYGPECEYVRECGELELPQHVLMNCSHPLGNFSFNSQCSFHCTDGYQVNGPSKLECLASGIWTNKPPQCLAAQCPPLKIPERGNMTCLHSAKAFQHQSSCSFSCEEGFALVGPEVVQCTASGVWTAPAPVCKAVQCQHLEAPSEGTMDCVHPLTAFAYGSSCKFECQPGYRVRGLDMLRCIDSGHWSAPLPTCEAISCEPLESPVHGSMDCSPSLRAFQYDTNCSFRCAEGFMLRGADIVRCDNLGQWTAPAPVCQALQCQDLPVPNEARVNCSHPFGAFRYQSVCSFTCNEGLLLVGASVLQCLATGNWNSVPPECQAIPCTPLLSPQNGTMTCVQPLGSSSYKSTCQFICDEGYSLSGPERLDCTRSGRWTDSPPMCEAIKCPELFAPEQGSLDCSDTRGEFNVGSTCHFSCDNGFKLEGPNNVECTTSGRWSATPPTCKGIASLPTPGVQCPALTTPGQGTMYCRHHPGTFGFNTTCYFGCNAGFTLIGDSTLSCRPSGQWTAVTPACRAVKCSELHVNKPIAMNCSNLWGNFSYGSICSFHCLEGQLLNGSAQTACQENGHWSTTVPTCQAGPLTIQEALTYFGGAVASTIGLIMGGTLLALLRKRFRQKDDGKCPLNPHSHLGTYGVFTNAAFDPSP

[2] = administered systemically; cited from earlier work
[3] = system: ovarian cancer xenograft; conditions: clodronate to reduce macrophage levels; cited from earlier work
[4] = biological target: T1, P-selectin; test: Colorectal cancer cell adhesion to MIP-1β-treated LP-9; assay type: cell-based; parameters: endogenous in cells; host or cells: LP-9 mesothelial cells; conditions: LS411N, SW48; 100 ng/mL MIP-1β; KF38789 10 μM
Experimental: The experimental methods are reflective of those previously used to inhibit P-selectin, while used in an adhesion experiment with the colorectal cell lines LS411N and SW48.
The tissue culture plastic within the PDMS ring was coated with 1 μg of PureCol® Collagen I for 2 hours at room temperature. LP-9 were seeded into the PDMS rings to confluency (93,500 cells/cm^2 in 40 μL). Twenty-four hours after seeding, cells were washed with SFM, and 40 μL of fresh SFM containing either vehicle (0.1% BSA) or 100 ng/mL MIP-1β was added for 24 hours. To determine if P-selectin played a role in adhesion, LP-9 were treated with 10 μM of the small molecule P-selectin inhibitor KF38789 or DMSO (0.0005% v/v) 1 hour prior to the addition of colorectal cancer cells. The colorectal cancer cells (LS411N, SW48) were stained with 5 μM CellTracker™ Green CMFDA Dye, dissociated using TrypLE Select Enzyme, and seeded into devices at 10,000 cells/10 μL after 24 hours of mesothelial cell treatment with MIP-1β. Colorectal cancer cells were allowed to adhere for three hours, then coverslips were removed, and devices were washed twice with 2 mL PBS to remove non-adherent cells. […] Percent adhesion was quantified by converting cells/image to total cells/area of the co-culture device and dividing by the number of HGSOC cells added to the device.

[5] = biological target: T1, P-selectin; test: HGSOC adhesion to LP-9 mesothelial cells in co-culture device, P-selectin inhibition; assay type: cell-based; parameters: endogenous in cells; host or cells: LP-9 mesothelial cells; conditions: LP-9 + 100 ng/mL MIP-1β; 10 μM KF38789 1 hour before tumor cells; 3 h adhesion
Description: (§1) In vitro model of adhesion in transcoelomic metastasis: A co-culture device was modified to construct the in vitro model of metastatic adhesion (FIG. 2). The device includes a PDMS ring that is placed in a well of a 24 well tissue culture plate and a 9×9 mm coverslip placed on top. One or more cell types can be grown within the ring, while another population can be grown on the coverslip. Inverting the coverslip on top of the ring initiates co-culture between the populations. The tissue culture plastic within the PDMS ring was coated with 1 μg of PureCol® Collagen I (Advanced Biomatrix; San Diego, Calif.) for 2 hours at room temperature. LP-9 or LP-3 were seeded into the PDMS rings to confluency (93,500 cells/cm^2 in 40 μL). Twenty-four hours after seeding, cells were washed with SFM, AAM or control coverslips were placed on top of the PDMS ring, and 40 μL of fresh SFM was added. HGSOC cells were stained with 5 μM CellTracker™ Green CMFDA Dye, dissociated using TrypLE™ Select Enzyme, and seeded into devices at 10,000 cells/10 μL after 24 hours of mesothelial cells and AAMs co-culture. […] Percent adhesion was quantified by converting cells/image to total cells/area of the co-culture device and dividing by the number of HGSOC cells added to the device.

[6] = biological target: CCR5 (Homo sapiens, UniProt P51681); test: SELP expression in LP-9 by qRT-PCR, CCR5 inhibition; assay type: cell-based; conditions: 100 ng/mL MIP-1β + 10 μg/mL maraviroc, 24 hours
Description: (§2) RNA extraction and qRT-PCR: RNA was collected and isolated using the Micro-RNeasy® Extraction kit (Qiagen; Valencia, Calif.), and cDNA was synthesized using the Qiagen® First Strand Kit according to manufacturer's instructions. cDNA was mixed with Qiagen® Mastermix and assayed using the Extracellular Matrix and Adhesion Molecules RT2 Profiler PCR Array (Qiagen) in a CFX real time PCR machine (Bio-Rad; Hercules, Calif.) for a total of 40 cycles, using Qiagen's Data Analysis Center for analysis. Data is expressed as fold change, with ±2-fold set as the threshold for significance. qRT-PCR was performed using human primers for SELP, CCR1, and CCR5, and GAPDH (all Qiagen), and mouse primers for Selp (Qiagen) and Aes (IDT; Coralville, Iowa), with SsoAdvanced™ Universal SYBR® Green Supermix (Bio-Rad). Three samples were run in duplicate from each condition.
(§3) Interventions in co-culture model: To determine if P-selectin played a role in adhesion, LP-9 in co-culture devices were treated with 10 μg/mL of anti-P-selectin blocking antibody or monoclonal mouse IgG1 isotype (BioLegend; San Diego, Calif.), or 10 μM of the small molecular inhibitor KF38789 (Tocris; Minneapolis, Minn.) or DMSO (0.0005% v/v) 1 hour prior to the addition of ovarian cancer cells. […]

[7] = system: HGSOC; conditions: mouse models of HGSOC; cited from earlier work
[8] = system: MEK; test: SELP expression in LP-9 by qRT-PCR, MEK inhibition; assay type: cell-based, human; conditions: both vehicle and 100 ng/mL MIP-1β treated LP-9, 10 μM PD0325901, 24 hours
Description: as §2, §3

[9] = system: LP-9 mesothelial cells; test: HGSOC adhesion to LP-9 treated with MIP-1β; assay type: cell-based, human; conditions: 100 ng/mL MIP-1β 24 hours, all HGSOC lines
Description: as §1

[10] = biological target: T1, P-selectin; conditions: cited from earlier work

CCR5, sequence (P51681 whole entry): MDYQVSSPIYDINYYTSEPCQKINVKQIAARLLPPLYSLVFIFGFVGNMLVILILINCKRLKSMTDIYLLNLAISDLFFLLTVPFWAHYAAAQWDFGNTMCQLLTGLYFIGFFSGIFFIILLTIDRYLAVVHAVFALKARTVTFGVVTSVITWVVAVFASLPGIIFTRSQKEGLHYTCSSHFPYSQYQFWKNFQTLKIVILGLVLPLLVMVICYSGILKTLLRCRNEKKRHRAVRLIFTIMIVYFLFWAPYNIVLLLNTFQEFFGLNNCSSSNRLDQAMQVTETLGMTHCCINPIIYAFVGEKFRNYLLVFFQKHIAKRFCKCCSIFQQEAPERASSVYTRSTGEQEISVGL

Molecule: inclacumab
- Efficacy for saphenous vein graft failure following coronary artery bypass surgery [1]: surgery (94-96). While inclacumab had low efficacy for this
- Tolerability in patients [2]: well tolerated

Molecule: O=P(O)(O)C(Cl)(Cl)P(=O)(O)O [clodronate]
- Metastasis [3]: decreased metastasis

- Colorectal cancer cell adhesion to LP-9 increased by MIP-1β [4]: abrogates the increased adhesion
- HGSOC adhesion to LP-9 increased by MIP-1β [5]: abrogated the increased adhesion
Molecule: COc1ccc(C2CC(c3c(O)cc(C)oc3=O)=NCCS2)c(OC)c1 (stereo not drawn) [KF38789, reference compound]

Molecule: Maraviroc
- MIP-1β-stimulated SELP expression in LP-9 [6]: effective in inhibiting MIP-1β-stimulated expression of SELF
- MIP-1β-stimulated SELP expression in LP-9 ([6]; listed as maraviroc): negated SELP upregulation; also recorded: inhibited the upregulation of SELP

Molecule: IL-1ra: AAM-secreted ligand IL-1ra
- Extent of metastasis [7]: decrease the extent of metastasis

Molecule: O=C(NOC[C@H](O)CO)c1ccc(F)c(F)c1Nc1ccc(I)cc1F [PD0325901]
- SELP expression in LP-9 [8]: significantly decreased SELP expression

B1: MIP-1β: recombinant chemokine MIP-1β (Peprotech; recombinant mouse MIP-1β in vivo) (protein, UniProt P13236 24-92, looked up)
C-C motif chemokine 4: APMGSDPPTACCFSYTARKLPRNFVVDYYETSSLCSQPAVVFQTKRSKQVCADPSESWVQEYVYDLELN
- HGSOC adhesion to LP-9 treated with MIP-1β [9]: significantly increased adhesion

B2: crizanlizumab (antibody, chains of the INN, looked up, V domains shown)
VH: QVQLVQSGAEVKKPGASVKVSCKVSGYTFTSYDINWVRQAPGKGLEWMGWIYPGDGSIKYNEKFKGRVTMTVDKSTDTAYMELSSLRSEDTAVYYCARRGEYGNYEGAMDYWGQGTLVTVSS
VL: DIQMTQSPSSLSASVGDRVTITCKASQSVDYDGHSYMNWYQQKPGKAPKLLIYAASNLESGVPSRFSGSGSGTDFTLTISSLQPEDFATYYCQQSDENPLTFGGGTKVEIK
notes: monoclonal antibody against P-selectin
- Effect on P-selectin-ligand binding [10]: not only block ligand binding but also disrupt existing P-selectin-ligand interactions
- Tolerability in patients [2]: well tolerated
